ChEMBL document CHEMBL3232950, “Quinolone-benzylpiperidine derivatives as novel acetylcholinesterase inhibitor and antioxidant hybrids for Alzheimer disease” (Bioorg Med Chem, 2014)

How the values were obtained:
[1] = molecular target: Cholinesterase (Equus caballus, UniProt P81908)
Description: Inhibition of BuChE in equine serum using butyrylthiocholine iodide as substrate preincubated with enzyme for 10 mins prior to substrate challenge measured after 15 mins by Ellman's method

[2] = molecular target: Acetylcholinesterase (Electrophorus electricus, UniProt O42275)
Description: Inhibition of electric eel AChE using acetylthiocholine iodide as substrate preincubated with enzyme for 10 mins prior to substrate challenge measured after 15 mins by Ellman's method

[3] = tested on: Radical scavenging activity
Description: Antioxidant activity assessed as DPPH radical scavenging activity after 2 hrs by absorbance analysis

[4] = Antioxidant activity assessed as superoxide anion radical scavenging activity at 100 uM by non-enzymatic phenazine methosulfate NADH-system; assay type: functional
[5] = molecular target: Acetylcholinesterase (Homo sapiens, UniProt P22303); experiment: Inhibition of AChE in human erythrocytes using acetylthiocholine iodide as substrate preincubated with enzyme for 10 mins prior to substrate challenge measured after 15 mins by Ellman's method; assay type: cell-based
Chain of Acetylcholinesterase (Homo sapiens, UniProt P22303) (P22303 whole entry): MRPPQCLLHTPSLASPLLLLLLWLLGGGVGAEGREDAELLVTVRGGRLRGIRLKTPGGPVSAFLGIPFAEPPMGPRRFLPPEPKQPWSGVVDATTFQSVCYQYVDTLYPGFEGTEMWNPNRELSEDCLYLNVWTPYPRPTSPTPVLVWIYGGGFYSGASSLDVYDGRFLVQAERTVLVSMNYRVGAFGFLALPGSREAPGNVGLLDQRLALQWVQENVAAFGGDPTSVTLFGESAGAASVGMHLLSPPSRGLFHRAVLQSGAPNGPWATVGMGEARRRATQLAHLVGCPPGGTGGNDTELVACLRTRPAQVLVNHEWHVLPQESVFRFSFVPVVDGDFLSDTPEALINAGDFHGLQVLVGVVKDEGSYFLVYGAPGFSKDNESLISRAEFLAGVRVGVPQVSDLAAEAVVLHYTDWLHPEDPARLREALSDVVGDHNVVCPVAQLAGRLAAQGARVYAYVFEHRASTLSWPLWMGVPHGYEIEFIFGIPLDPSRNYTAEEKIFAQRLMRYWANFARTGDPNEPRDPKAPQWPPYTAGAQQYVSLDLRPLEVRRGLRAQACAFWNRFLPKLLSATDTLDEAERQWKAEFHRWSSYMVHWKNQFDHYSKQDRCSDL

Chain of Cholinesterase (P81908 whole entry): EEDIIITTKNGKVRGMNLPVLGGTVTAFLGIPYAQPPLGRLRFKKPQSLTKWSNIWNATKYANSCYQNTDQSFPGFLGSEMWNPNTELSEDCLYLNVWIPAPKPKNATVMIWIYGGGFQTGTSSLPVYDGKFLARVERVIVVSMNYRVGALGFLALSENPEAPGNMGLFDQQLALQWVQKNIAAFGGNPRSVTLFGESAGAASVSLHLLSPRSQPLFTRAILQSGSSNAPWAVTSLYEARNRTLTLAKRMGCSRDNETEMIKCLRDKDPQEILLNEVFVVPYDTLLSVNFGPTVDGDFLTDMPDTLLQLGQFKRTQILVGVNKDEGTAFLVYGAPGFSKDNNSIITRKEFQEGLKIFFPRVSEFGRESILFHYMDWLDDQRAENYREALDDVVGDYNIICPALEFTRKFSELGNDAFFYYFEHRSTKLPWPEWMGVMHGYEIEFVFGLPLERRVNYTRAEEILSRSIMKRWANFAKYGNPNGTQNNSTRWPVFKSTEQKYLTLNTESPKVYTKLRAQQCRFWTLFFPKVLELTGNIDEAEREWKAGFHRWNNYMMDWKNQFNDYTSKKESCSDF
Chain of Acetylcholinesterase (Electrophorus electricus, UniProt O42275) (O42275 whole entry): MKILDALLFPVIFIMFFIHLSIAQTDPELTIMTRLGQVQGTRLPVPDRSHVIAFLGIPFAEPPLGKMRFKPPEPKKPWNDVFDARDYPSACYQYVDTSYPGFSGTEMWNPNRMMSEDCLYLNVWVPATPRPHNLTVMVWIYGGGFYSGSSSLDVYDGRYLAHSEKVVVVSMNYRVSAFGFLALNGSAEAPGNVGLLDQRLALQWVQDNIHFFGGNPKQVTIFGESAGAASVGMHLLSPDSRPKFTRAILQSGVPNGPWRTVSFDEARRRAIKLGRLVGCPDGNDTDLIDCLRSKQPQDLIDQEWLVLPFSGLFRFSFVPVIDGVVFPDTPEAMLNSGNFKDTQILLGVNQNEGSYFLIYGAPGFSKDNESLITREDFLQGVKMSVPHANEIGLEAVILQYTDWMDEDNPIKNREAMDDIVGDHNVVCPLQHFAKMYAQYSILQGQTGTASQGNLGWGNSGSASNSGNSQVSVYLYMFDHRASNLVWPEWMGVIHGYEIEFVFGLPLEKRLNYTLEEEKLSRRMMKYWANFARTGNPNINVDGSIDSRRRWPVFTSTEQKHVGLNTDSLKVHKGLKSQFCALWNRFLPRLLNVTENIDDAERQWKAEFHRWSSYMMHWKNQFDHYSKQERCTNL

Structure (SMILES)	IC50 [1] [nM]	IC50 [2] [nM]	EC50 [3] [nM]	Activity [4] [%]	IC50 [5] [nM]
COc1cc2c(O)c(C(=O)NCC3CCN(Cc4ccccc4)CC3)c(=O)n(C)c2cc1OC	> 10000	2930	–	–	–
Cn1c(=O)c(C(=O)NCC2CCN(Cc3ccccc3)CC2)c(O)c2ccccc21	4260	370	–	–	–
O=C(NCC1CCN(Cc2ccccc2)CC1)c1c(O)c2ccccc2[nH]c1=O	6020	1410	–	–	–
Cn1c(=O)c(C(=O)NC2CCN(Cc3ccccc3)CC2)c(O)c2ccccc21	> 10000	1520	–	–	–
Cn1c(=O)c(C(=O)NCC2CCN(Cc3ccccc3)CC2)c(O)c2cc(O)c(O)cc21	> 10000	2020	21700	40	–
Cn1c(=O)c(C(=O)NCC2CCN(Cc3ccccc3)CC2)c(N)c2ccccc21	1140	380	–	–	–
COc1cc(/C=C/C(=O)CC(=O)/C=C/c2ccc(O)c(OC)c2)ccc1O [CURCUMIN]	–	–	26600	–	–
O=C(NCC1CCN(Cc2ccccc2)CC1)c1c(O)c2cc(O)c(O)cc2[nH]c1=O	> 10000	480	12200	–	980
COc1cc2c(O)c(C(=O)NCC3CCN(Cc4ccccc4)CC3)c(=O)n(Cc3ccccc3)c2cc1OC	> 60000	270	–	–	–
COc1cc2[nH]c(=O)c(C(=O)NCC3CCN(Cc4ccccc4)CC3)c(O)c2cc1OC	> 60000	110	–	–	230
COc1cc(Cn2c(=O)c(C(=O)NCC3CCN(Cc4ccccc4)CC3)c(O)c3ccccc32)cc(OC)c1O	330	560	90500	33	–
O=C(NC1CCN(Cc2ccccc2)CC1)c1c(O)c2ccccc2[nH]c1=O	> 10000	2270	–	–	–
O=C(NC1CCN(Cc2ccccc2)CC1)c1c(O)c2ccccc2n(Cc2ccccc2)c1=O	> 10000	390	–	–	–
O=C(NC1CCN(Cc2ccccc2)CC1)c1c(-c2ccccc2)c2ccccc2[nH]c1=O	> 10000	> 10000	–	–	–
Cc1c(C(=O)NCC2CCN(Cc3ccccc3)CC2)c(=O)[nH]c2ccccc12	> 10000	470	–	–	–
Cc1c(C(=O)NC2CCN(Cc3ccccc3)CC2)c(=O)[nH]c2ccccc12	> 10000	2460	–	–	–
O=c1c(O)c(-c2ccc(O)c(O)c2)oc2cc(O)cc(O)c12 [QUERCETIN]	–	–	10300	–	–
O=C(NCC1CCN(Cc2ccccc2)CC1)c1c(O)c2ccccc2n(Cc2ccccc2)c1=O	> 10000	490	–	–	–
O=C(NCC1CCN(Cc2ccccc2)CC1)c1c(O)c2cc(O)c(O)cc2n(Cc2ccccc2)c1=O	> 10000	> 10000	20800	–	–
O=C(NCC1CCN(Cc2ccccc2)CC1)c1c(O)c2ccccc2n(Cc2cc(O)c(O)c(O)c2)c1=O	> 10000	3890	107000	–	–
